Converted amounts (≈) assume the structure as drawn. Where two headings read alike, the source gives them in different places.
Tests used:
[1] = test system: ROS from zymosan activated whole blood cells; test: Oxidative burst assay (in vitro anti-inflammatory, ROS inhibition); type: cell-based, human; conditions: for IC50: Homo sapiens, Whole blood cell, read-out: Anti-Inflammatory Activity IC50 ± SD; for Anti-Inflammatory Activity IC50 ± SD: observed, ROS inhibition, zymosan activated whole blood cells, screening concentration 25 µg/mL, <50% inhibition = inactive
Procedure: In this experiment all the compounds were evaluated at 25 µg/mL, each in triplicate.
All studies on human blood cells was carried out after an approval from independent ethics committee (Prof. Dr. Ghazala H. Rizwani Chair, IEC, Prof. Qamar Amin, Prof, Dr. Muddasir Uddin, Dr. Shahnaz Ghazi, Dr. SamiuzZaman, Prof. Dr. Ahsana Dar Farooq, Dr. M. Raza Shah member IEC), International Center for Chemical and Biological Sciences, University of Karachi, No: ICCBS/IEC-008-BC-2015/Protocol/1.0. Informed consents were obtained from the volunteers before drawing the blood. All the experiments were performed in accordance with relevant guidelines and regulations.

[2] = test system: ROS from zymosan activated whole blood cells; set-up: method as in PMID 6178787, PMID 28202019; conditions: reported literature value of the standard; cited from earlier work
urease [3] = target: T1, urease (Canavalia ensiformis, UniProt P07374); test: biochemical
Procedure: During the experiments all the compounds were evaluated at 0.5 mM each in triplicate.

in vitro = conditions: mouse
Procedure: (§1) In this experiment all the compounds were evaluated at 30 µM each in triplicate.

[4] = test system: 3T3 normal (mouse fibroblast) cell line
Procedure: as §1

[5] = 3T3 cytotoxicity assay (MTT); conditions: mouse
Procedure: as §1

urease [6] = target: T1, urease; conditions: reported literature value of the standard; read-out: Urease Inhibition Activity IC50 ± SEM (Reported) (converted); cited from earlier work
[7] = test system: 3T3 normal (mouse fibroblast) cell line; test: 3T3 cytotoxicity assay (MTT); conditions: read-out: Cytotoxicity (3T3 Cell line) IC50 ± SD; observed; screened at 30 µM; <50% inhibition at 30 µM = inactive
Procedure: as §1

[8] = observed, screening concentration 0.5 mM, <50% inhibition = inactive, Insoluble = partially soluble in HPLC methanol of the protocol, read-out: Urease Inhibition Activity IC50 ± SEM
[9] = observed, screening concentration 0.5 mM, <50% inhibition = inactive, Insoluble = partially soluble in HPLC methanol of the protocol

T1 sequence (P07374 whole entry, looked up): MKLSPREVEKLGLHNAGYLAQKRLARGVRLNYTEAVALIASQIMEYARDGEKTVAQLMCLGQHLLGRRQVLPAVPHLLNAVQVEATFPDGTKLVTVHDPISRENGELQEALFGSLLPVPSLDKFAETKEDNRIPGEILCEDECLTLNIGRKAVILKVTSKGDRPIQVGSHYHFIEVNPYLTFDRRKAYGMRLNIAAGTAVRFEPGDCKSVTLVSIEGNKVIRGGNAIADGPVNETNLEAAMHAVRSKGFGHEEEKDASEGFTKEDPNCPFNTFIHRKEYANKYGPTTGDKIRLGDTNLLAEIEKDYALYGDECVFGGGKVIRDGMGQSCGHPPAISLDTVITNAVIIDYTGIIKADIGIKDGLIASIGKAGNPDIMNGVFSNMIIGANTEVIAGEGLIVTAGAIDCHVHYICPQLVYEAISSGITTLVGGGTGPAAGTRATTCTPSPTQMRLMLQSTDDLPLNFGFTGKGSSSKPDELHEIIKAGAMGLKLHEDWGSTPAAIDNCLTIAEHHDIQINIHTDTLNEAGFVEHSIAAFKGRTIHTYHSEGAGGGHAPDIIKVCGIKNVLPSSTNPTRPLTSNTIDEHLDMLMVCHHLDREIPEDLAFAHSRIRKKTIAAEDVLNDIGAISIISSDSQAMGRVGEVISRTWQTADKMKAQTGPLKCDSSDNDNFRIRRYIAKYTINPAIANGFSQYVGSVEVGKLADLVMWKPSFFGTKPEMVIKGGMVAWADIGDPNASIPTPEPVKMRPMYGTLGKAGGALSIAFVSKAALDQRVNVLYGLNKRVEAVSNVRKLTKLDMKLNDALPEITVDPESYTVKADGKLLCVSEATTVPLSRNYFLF

SMILES	IC50 (urease [3])	Anti-Inflammatory Activity IC50 ± SD [1]	melting point	IC50 (in vitro)	further results
CC(C)Cc1ccc(C(C)C(=O)O)cc1 (stereo not shown) [Ibuprofen, reference compound]	–	–	–	–	IC50 [1]: 11.2 ± 1.9 µg/mL (≈ 54.3 µM); Anti-Inflammatory Activity IC50 ± SD (reported) [2]: 12.97 ± 0.23 µg/mL
O=C(NNC(=S)Nc1ccc(F)cc1)c1ccncc1 [Compound 19, N-(4-Fluorophenyl)-2-isonicotinoylhydrazinecarbothioamide]	12.7 ± 0.8 µM	Inactive	191 to 192 °C	> 30 µM	–
O=C(NNC(=S)Nc1cc(Cl)ccc1Cl)c1ccncc1 [Compound 5, N-(2,5-Dichlorophenyl)-2-isonicotinoylhydrazinecarbothioamide]	36.5 ± 0.14 µM	–	172 to 173 °C	> 30 µM	IC50 [1]: 18.5 ± 1 µg/mL (≈ 54.2 µM)
O=C(NNC(=S)Nc1cc(Cl)c(Cl)cc1Cl)c1ccncc1 [Compound 21, Isonicotinoyl-N-(2,4,5-trichlorophenyl) hydrazinecarbothioamide]	–	Inactive	–	–	IC50 (urease [3]; [8]): 28.2 ± 1.48 µM; IC50 [4]: > 30 µM
O=C(NNC(=S)Nc1ccc(Cl)cc1)c1ccncc1 [Compound 18, N-(4-Chlorophenyl)-2-isonicotinoylhydrazine carbothioamide]	26.3 ± 1.59 µM	Inactive	–	29.5 ± 1.9 µM	–
O=C(NNC(=S)Nc1c(Cl)cccc1Cl)c1ccncc1 [Compound 6, N-(2,6-Dichlorophenyl)-2-isonicotinoylhydrazinecarbothioamide]	–	Inactive	127 to 128 °C	> 30 µM	Urease Inhibition Activity IC50 ± SEM (urease [3]; [9]): Insoluble
O=C(NNC(=S)NC1CCCCC1)c1ccncc1 [Compound 23, N-Cyclohexyl-2-isonicotinoylhydrazinecarbothioamide]	22.4 ± 1.83 µM	–	212 to 213 °C	> 30 µM	IC50 [1]: 12.3 ± 1.2 µg/mL (≈ 44.2 µM)
O=C(NNC(=S)Nc1cccc(Cl)c1Cl)c1ccncc1 [Compound 4, N-(2,3-Dichlorophenyl)-2-isonicotinoylhydrazinecarbothioamide]	38.8 ± 0.35 µM	Inactive	198 to 199 °C	> 30 µM	–
COc1ccc(NC(=S)NNC(=O)c2ccncc2)cc1 [Compound 20, 2-Isonicotinoyl-N-(4-methoxyphenyl) hydrazinecarbothioamide]	–	Inactive	–	–	IC50 (urease [3]; [8]): 22 ± 1.15 µM; IC50 [4]: > 30 µM
NNC(=O)c1ccncc1 [Isoniazid(1), Isoniazid]	–	Inactive	–	–	Urease Inhibition Activity IC50 ± SEM (urease [3]; [9]): Inactive; IC50 [5]: 28.5 ± 1.2 µM
O=C(NNC(=S)Nc1cc(C(F)(F)F)ccc1Cl)c1ccncc1 [Compound 8, N-(2-Chloro-5-(trifluoromethyl)phenyl)-2-isonicotinoylhydrazinecarbothioamide]	44.4 ± 0.43 µM	Inactive	183 to 184 °C	> 30 µM	–
O=C(NNC(=S)Nc1cccc(Br)c1)c1ccncc1 [Compound 22, N-(3-Bromophenyl)-2-isonicotinoylhydrazinecarbothioamide]	22.1 ± 1.91 µM	–	192 to 193 °C	> 30 µM	IC50 [1]: 25.1 ± 0.4 µg/mL (≈ 71.5 µM)
N#Cc1ccc(NC(=S)NNC(=O)c2ccncc2)cc1 [Compound 10, N-(4-Cyanophenyl)-2-isonicotinoylhydrazinecarbothioamide]	15.7 ± 1.32 µM	Inactive	162 to 163 °C	> 30 µM	–
CCCCCCNC(=S)NNC(=O)c1ccncc1 [Compound 25, N-Hexyl-2-isonicotinoylhydrazinecarbothioamide]	–	Inactive	215 to 216 °C	> 30 µM	Urease Inhibition Activity IC50 ± SEM (urease [3]; [9]): Insoluble
O=C(NNC(=S)Nc1ccccc1F)c1ccncc1 [Compound 3, N-(2-Fluorophenyl)-2-isonicotinoylhydrazinecarbothioamide]	–	Inactive	241 to 242 °C	> 30 µM	Urease Inhibition Activity IC50 ± SEM (urease [3]; [9]): Inactive^c
O=C(NNC(=S)Nc1cccc(I)c1)c1ccncc1 [Compound 17, N-(3-Iodophenyl)-2-isonicotinoylhydrazinecarbothioamide]	14.7 ± 1.01 µM	–	192 to 193 °C	> 30 µM	IC50 [1]: 36.9 ± 3 µg/mL (≈ 92.7 µM)
O=C(NNC(=S)Nc1cccc(F)c1)c1ccncc1 [Compound 16, N-(3-Fluorophenyl)-2-isonicotinoylhydrazinecarbothioamide]	21.5 ± 1.3 µM	–	174 to 175 °C	> 30 µM	IC50 [1]: 29.7 ± 1.7 µg/mL (≈ 102 µM)
O=C(NNC(=S)Nc1ccc(F)cc1F)c1ccncc1 [Compound 15, N-(2,4-Difluorophenyl)-2-isonicotinoylhydrazinecarbothioamide]	34.1 ± 0.45 µM	Inactive	191 to 192 °C	> 30 µM	–
O=C(NNC(=S)Nc1cccc([N+](=O)[O-])c1)c1ccncc1 [Compound 27, 2-Isonicotinoyl-N-(3-nitrophenyl) hydrazinecarbothioamide]	–	Inactive	–	–	Urease Inhibition Activity IC50 ± SEM (urease [3]; [9]): Insoluble^d; IC50 [4]: > 30 µM
O=C(NNC(=S)Nc1ccccc1)c1ccncc1 [Compound 24, 2-Isonicotinoyl-N-phenylhydrazinecarbothioamide]	63.2 ± 2 µM	Inactive	–	> 30 µM	–
O=C(NNC(=S)Nc1c(F)c(F)c(F)c(F)c1F)c1ccncc1 [Compound 12, 2-Isonicotinoyl-N-(perfluorophenyl) hydrazinecarbothioamide]	–	27.7 ± 2.4 µg/mL	–	–	IC50 (urease [3]; [8]): 12.3 ± 1.04 µM; IC50 [4]: > 30 µM
O=C(NNC(=S)Nc1cccc(N=C=S)c1)c1ccncc1 [Compound 26]	–	–	195 to 196 °C	–	–
O=C(NNC(=S)Nc1ccc(Cl)c(C(F)(F)F)c1)c1ccncc1 [Compound 9, N-(4-Chloro-3-(trifluoromethyl)phenyl)-2 isonicotinoylhydrazinecarbothioamide]	14.2 ± 1.38 µM	–	231 to 232 °C	> 30 µM	IC50 [1]: 26.7 ± 2.5 µg/mL (≈ 71.2 µM)
CC(=O)NO [Aetohydaoxamic acid, acetohydroxamic acid, reference compound]	–	–	–	–	IC50 (urease [3]; [8]): 20.3 ± 0.4 µM; IC50 (urease [6]): 17.2 µM
O=C(NNC(=S)Nc1ccccc1Br)c1ccncc1 [Compound 14, N-(2-Bromophenyl)-2-isonicotinoylhydrazinecarbothioamide]	35.8 ± 1.89 µM	Inactive	156 to 157 °C	> 30 µM	–
O=C(NNC(=S)NC1CCCC1)c1ccncc1 [Compound 13, N-Cyclopentyl-2-isonicotinoylhydrazinecarbothioamide]	13.6 ± 1.61 µM	Inactive	223 to 224 °C	> 30 µM	–
O=C(NNC(=S)Nc1ccc(OC(F)(F)F)cc1)c1ccncc1 [Compound 11, 2-Isonicotinoyl-N-(4-(trifluoromethoxy)phenyl) hydrazine carbothioamide]	–	Inactive	–	–	IC50 (urease [3]; [8]): 13.2 ± 1.64 µM; IC50 [7]: > 30 µM
O=C(NNC(=S)Nc1c(F)cccc1F)c1ccncc1 [Compound 7, N-(2,6-Difluorophenyl)-2-isonicotinoylhydrazinecarbothioamide]	46.3 ± 0.43 µM	Inactive	248 to 249 °C	> 30 µM	–
